{"source": "patent US8445497B2", "about": "“Compounds for the treatment of hepatitis C” (Bristol-Myers Squibb Company, priority 2010, dated 2013)", "key": {"HCV [1]": {"tested_on": "HCV", "conditions": "single agent: transient decrease then rebound; more robust drop with interferon and ribavirin; cited from earlier work"}, "[2]": {"conditions": "extended dosing of the combination regimens with interferon and ribavirin; cited from earlier work"}, "[3]": {"tested_on": "genotype 1a or 1b HCV replicon in Huh-7 cells", "experiment": "HCV replicon luciferase assay", "format": "cell-based", "conditions": "Hepatitis C virus, 72 h; Huh-7 HCV replicon, Renilla luciferase, 3 days; genotype 1a or 1b not stated", "protocol": "Cell lines. The cell lines used to evaluate compounds consist of a human hepatocyte derived cell line (Huh-7) that constitutively expresses a genotype 1a or 1b HCV replicon containing a Renilla luciferase reporter gene. These cells were maintained in Dulbecco's modified Eagle medium (DMEM) containing 10% FBS, 100 U/mL penicillin/streptomycin and 1.0 mg/mL G418.\nHCV replicon luciferase assay. To evaluate compound efficacy, HCV replicon cells were seeded in 96-well plates in DMEM containing 10% FBS at a cell density of 10^4/well. Following incubation at 37° C. overnight, compounds serially diluted in DMSO were added to the cell plates. Alternatively, titrated compounds were transferred to sterile 384-well tissue-culture treated plates and the plates seeded with 50 μL of cells at a density of 2.4×10^3 cells/well in DMEM containing 4% FCS (final DMSO concentration at 0.5%). After 3 days incubation at 37° C., cells were analyzed for Renilla Luciferase activity using the EnduRen substrate (Promega cat #E6485) according to the manufacturer's directions. Briefly, the EnduRen substrate was diluted in DMEM and then added to the plates to a final concentration of 7.5 μM. The plates were incubated for at least 1 h at 37° C. then read on a TopCount NXT Microplate Scintillation and Luminescence Counter (Packard) or Viewlux Imager (PerkinElmer) using a luminescence program. […]"}, "HCV NS5B": {"target": "T1, HCV NS5B (Hepatitis C virus genotype 1b, UniProt Q9WMX2)", "T1 construct": "The protein was expressed with an 18 amino acid C-terminal truncation to enhance the solubility; made in house; host or cells: E. coli BL21(DE3)", "T1 sequence (Q9WMX2 2420-2992)": "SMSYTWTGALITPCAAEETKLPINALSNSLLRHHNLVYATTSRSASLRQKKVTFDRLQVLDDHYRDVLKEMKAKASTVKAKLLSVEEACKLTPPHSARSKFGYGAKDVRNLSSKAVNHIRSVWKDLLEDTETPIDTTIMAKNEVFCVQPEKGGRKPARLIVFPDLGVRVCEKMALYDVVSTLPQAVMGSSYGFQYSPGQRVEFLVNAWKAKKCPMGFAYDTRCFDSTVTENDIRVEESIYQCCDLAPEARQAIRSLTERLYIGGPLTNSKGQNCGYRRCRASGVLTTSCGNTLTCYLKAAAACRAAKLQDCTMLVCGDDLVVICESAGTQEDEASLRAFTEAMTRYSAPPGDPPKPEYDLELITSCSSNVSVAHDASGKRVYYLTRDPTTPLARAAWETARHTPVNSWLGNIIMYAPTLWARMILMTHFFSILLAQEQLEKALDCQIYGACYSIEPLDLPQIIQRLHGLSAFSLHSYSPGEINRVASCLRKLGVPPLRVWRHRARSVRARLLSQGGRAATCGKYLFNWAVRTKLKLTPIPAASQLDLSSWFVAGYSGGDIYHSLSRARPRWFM", "experiment": "HCV NS5B RdRp enzyme assay", "format": "biochemical", "conditions": "HCV NS5B RdRp genotype 1b", "protocol": "HCV NS5B RdRp cloning, expression, and purification. The cDNA encoding the NS5B protein of HCV, genotype 1b, was cloned into the pET21a expression vector. The protein was expressed with an 18 amino acid C-terminal truncation to enhance the solubility. The E. coli competent cell line BL21(DE3) was used for expression of the protein. Cultures were grown at 37° C. for ˜4 hours until the cultures reached an optical density of 2.0 at 600 nm. The cultures were cooled to 20° C. and induced with 1 mM IPTG. Fresh ampicillin was added to a final concentration of 50 μg/mL and the cells were grown overnight at 20° C.\nCell pellets (3 L) were lysed for purification to yield 15-24 mgs of purified NS5B. The lysis buffer consisted of 20 mM Tris-HCl, pH 7.4, 500 mM NaCl, 0.5% triton X-100, 1 mM DTT, 1 mM EDTA, 20% glycerol, 0.5 mg/ml lysozyme, 10 mM MgCl2, 15 ug/ml deoxyribonuclease I, and Complete TM protease inhibitor tablets (Roche). After addition of the lysis buffer, frozen cell pellets were resuspended using a tissue homogenizer. To reduce the viscosity of the sample, aliquots of the lysate were sonicated on ice using a microtip attached to a Branson sonicator. […]\nStandard HCV NS5B RdRp enzyme assay. […] Plates were read on a Packard Top Count NXT after >1 hr incubation at room temperature. […]"}, "HCV [4]": {"tested_on": "HCV", "conditions": "combination therapy, Poynard et al. 1998; cited from earlier work"}}, "data": [{"compound": "CNC(=O)c1c(-c2ccc(F)cc2)oc2cc(N(CCO)S(C)(=O)=O)c(C3CC3)cc12", "note": "[HCV-796]", "values": [{"measurement": "HCV RNA levels in patients", "setting": "HCV [1]", "result": "showed an ability to reduce HCV RNA levels in patients"}, {"measurement": "hepatic toxicity", "setting": "[2]", "result": "hepatic toxicity observed"}]}, {"compound": "CNC(=O)c1c(-c2ccc(Oc3ccc(F)cc3)cc2)oc2ccc(-c3cc(C(=O)NC4(c5ncccn5)CC4)c(OC)cc3C)c(F)c12", "note": "[4-Fluoro-2-(4-(4-fluorophenoxy)phenyl)-5-(4-methoxy-2-methyl-5-(1-(pyrimidin-2-yl)cyclopropylcarbamoyl)phenyl)-N-methylbenzofuran-3-carboxamide]", "values": [{"measurement": "EC50", "setting": "[3]", "result": 5, "unit": "µM"}, {"measurement": "IC50", "setting": "HCV NS5B", "result": 24, "unit": "µM"}]}, {"compound": "alpha-interferon and ribavirin", "values": [{"measurement": "sustained efficacy, share of patients", "setting": "HCV [4]", "result": 40, "unit": "%"}]}]}
